Patent publication US9518038B2, “Condensation product of theanine derivative and carboxylic acid coumarin derivative, its intermediate, preparation method and use thereof” (SHANDONG YINGDONG YINGHAO BIOTECHNOLOGY, INC., priority 2012, dated 2016)

Assays:
[1] = system: human oral epidermoid cancer cells KBV200; assay: MTT growth inhibition, KBV200 cells; assay type: cell-based; conditions: 72 h after treatment, read-out: Drug concentration (IC50) at which 50% cancer cells survived
Excerpt: (§1) Cell lines and cell culture: human lung cancer cells A549 and H460, human breast cancer cells MCF-7 and MDA-MB-231, human gastric cancer cells BGC-823, human prostate cancer cells PC-3, human chronic leukemia cells K562, human lymphoma cells U937, human liver cancer cells SMMC7721 and HepG2, human colon cancer cells HT29, human pancreatic cancer cells PANC-1 and BxPC3, human cervical cancer Hela cell lines, human brain tumor cells Daoy, human neuroma cells D54 and human oral epidermoid cancer cells KBV200 line with strong drug resistance, mouse melanoma cells B16, and highly metastatic Lewis lung cancer cell lines were purchased from American Type Culture Collection of the U.S. These cells were cultured with DMEM and RPMI-1640 culture solutions separately.
(§2) The procedure was as follows:
(§3) (1) 0.25% trypsin was used to digest cancer cells in a logarithmic growth phase to prepare a single-cell suspension, the concentration of cells was adjusted to 5×10^4/mL, and the adjusted suspension was inoculated into a 96-well culture plate with 100 μl per well;
(§4) (2) The culture plate was transferred into a 37° C. incubator with a saturated humidity and 5% of CO2 and cultured for 24 h; the compounds and the intermediates thereof obtained in embodiments 1-7 and the compound as represented by formula (IIIa) or the positive control anti-cancer drug with the concentration of 1-1000 μM/L were added to enable the final concentration to be 0.1-1500 μM/L. Control wells (only added with 200 μl of cell suspension) and drug-free blank control wells (containing the solvent of 0.01% DMSO) were set, each group included 8 wells, and the plate was placed into the 37° C. incubator with saturated humidity and 5% of CO2 for culturing;
(§5) (3) The 96-well plate was taken out at 48 h and 72 h after dosing, the original culture medium was carefully removed by suction, 100 μl of serum-free DMEM culture medium and 10 μl of MTT (5 mg/mL) solution were added in each well. The plate was continuously cultured for another 4 h and then the culture was terminated;
(§6) (4) The supernatant in the wells was carefully removed by suction, each well was added with 150 μl of DMSO and shaked at room temperature for 10-15 min to fully dissolve crystals.
(§7) (5) Colorimetric analysis: the wavelength was selected as 570 nm, the light absorbance (A value) of each well was determined on the microplate reader and the results were recorded; the experiment was repeated for three times;
(§8) (6) the experimental results were calculated according to the following formula: relative survival rate=(A value of each experimental group/A value of cell control group)×100%
(§9) Calculation of median-effect concentration (IC50, namely the drug concentration at which the inhibition rate is 50%, also known as half inhibitory concentration):
(§10) IC50 of the detected component was calculated by using a regression equation.

[2] = system: human cervical cancer cells Hela xenograft; assay: In-vivo growth of Hela xenografts in nude mice; set-up: species or system BALB/c nude mice; conditions: Mus musculus, ip, vs DMSO solvent control, read-out: Curative effect (inhibition rate %) of tumor weight; for inhibition in vivo at 60 mg/kg: 60 mg/kg intraperitoneal once a day; for inhibition in vivo at 90 mg/kg: 90 mg/kg intraperitoneal once a day
Protocol: RPMI1640 and DMEM culture solutions: Hyclone Company; inactivated fetal bovine serum: Hyclone Company, preserved at −20° C.; trypsin: Amersco Company; and 0.4% trypan blue: Sigma Company;
(3) Observation of growth of tumors in nude mice: the activities (including food intake, traits of urine and stool, mental state and the like) of the nude mice and the tumor growth time and growth situation of the transplanted tumors were observed every day, the body weight and the size of the tumors were measured once every 2-3 days. The long diameter a and the short diameter b (mm) of each tumor were measured by a vernier caliper to calculate the volume, wherein the volume V=π1/2·ab^2 (mm^3);
(4) sacrifice of animals: the mice were anesthetized and photoed after treatment experiments; the nude mice were sacrificed by breaking neck, the tumor tissues were stripped under sterile conditions and the weight of the tumors was weighed; and the effects of the drugs on pathology and toxicity of the various organs and tissues were detected.

[3] = system: human breast cancer cells MCF-7; assay: MTT growth inhibition, MCF-7 cells; assay type: cell-based; conditions: MCF7, 72 h after treatment, read-out: Drug concentration (IC50) at which 50% cancer cells survived
Excerpt: as §1, §2, §3, §4, §5, §6, §7, §8, §9, §10

[4] = system: human lymphoma cells U937; assay: MTT growth inhibition, U937 cells; assay type: cell-based; conditions: Homo sapiens, U-937, 72 h after treatment, read-out: Drug concentration (IC50) at which 50% cancer cells survived
Protocol: as §2, §5, §6, §7, §8, §10

[5] = system: HDAC4; assay: Western Blotting, HDAC4 level; assay type: cell-based; conditions: human liver cancer cells, Lewis lung cancer cells and other cancer cell lines and tumor tissues, read-out: Effective concentration (IC50) for inhibition of HDAC4
Excerpt: (§11) Antibodies: primary antibodies of VEGFR, EGFR, c-Met, K-Ras, H-Ras, Akt, NF-κB, Cyclin D1, ER-alpha, Dvl-1, Dvl-2, Dvl-3, MMP-9, MMP2, β-catenin, Bcl-2, Bax, p53, p21, E-cadherin and Caspase3 protein, purchased from American Cell Signaling Technology Company and Santa Cruz Technology Company; and H3 acetylation, H4 acetylation and HDAC (HDAC3, HDAC4 and the like) Antibody Sample Kits, purchased from Cell Signaling Technology Company of the U.S.
(§12) (3) polyacrylamide gel electrophoresis (SDS-PAGE): an equal amount of protein lysate sample was used to separate protein, film transfer, and blocking, treated with appropriate primary antibodies and secondary antibodies in sequence, and the film was washed, then the color was developed with ECL kit, and a blot protein band was detected by exposure of an X-ray film; and a Gel-Pro Analyzer was used for quantitative analysis of gray degree, optical density value of the control group and the drug treatment group in various concentration were respectively compared with that of internal reference, the obtained ratios were respectively compared with the control group, and the protein expression level was semi-quantified.

[6] = system: K-Ras; assay: Western Blotting, K-Ras level; assay type: cell-based; conditions: human liver cancer cells, Lewis lung cancer cells and other cancer cell lines and tumor tissues, read-out: Effective concentration (IC50) for inhibition of K-Ras
Excerpt: as §11, §12

[7] = system: p53; assay: Western Blotting, increase of p53 level; assay type: cell-based; conditions: liver cancer cells, Lewis lung cancer cells and other cancer cell lines and tumor tissue protein lysates, 48 h treatment, read-out: Effective concentration to increase p53 by 50%
Excerpt: as §11, §12

SMILES | IC50 [1] [µM] | inhibition in vivo at 60 mg/kg [2] [%] | inhibition in vivo at 90 mg/kg [2] [%] | IC50 [3] [µM] | IC50 [4] [µM] | IC50 [5] [µM] | IC50 [6] [µM] | EC50 [7] [µM]
CCNC(=O)CC[C@H](N)C(=O)OCC [Compound IIb, theanine ethyl ester] | 300 | 41.7 | 41.7 | 300 | 400 | – | – | –
CCNC(=O)CC[C@@H](NC(=O)c1cc2cc(Cl)cc(Cl)c2oc1=O)C(=O)OCC [Compound Ig, (R)-2-(6,8-dichloro-2-oxo-2H-benzopyran-3-carboxamido)-5-ethylamino-5-oxo-pentanoic ethyl ester] | 84 | 56.7 | 70.3 | 75 | 38 | < 50 | < 65 | < 70
CCNC(=O)CC[C@@H](NC(=O)c1cc2cc(Br)cc(Br)c2oc1=O)C(=O)OCC [Compound Ih, (R)-2-(6,8-dibromo-2-oxo-2H-benzopyran-3-carboxamido)-5-ethylamino-5-oxo-pentanoic ethyl ester] | 72 | 62.9 | 72.6 | 91 | 57 | < 50 | < 65 | < 70
CCNC(=O)CC[C@@H](NC(=O)c1cc2cc(Br)ccc2oc1=O)C(=O)OCC [Compound Id, (R)-2-(6-Br-2-oxo-2H-benzopyran-3-carboxamido)-5-ethylamino-5-oxo-pentanoic acid ethyl ester] | 112 | 57.9 | 71.9 | 102 | 124 | < 50 | < 60 | < 100
CCNC(=O)CCC(NC(=O)c1cc2ccccc2oc1=O)C(=O)OCC (centres unmarked) [Compound Ib, ethyl 5-ethylamino-5-oxo-2-(2-oxo-2H-benzopyran-3-carboxamido)pentanoate] | 136 | 53.9 | 63.8 | 103 | 90 | < 60 | < 75 | < 120
CCNC(=O)CCC(NC(=O)c1cc2ccccc2oc1=O)C(=O)OC (centres unmarked) [Compound Ia, methyl 5-ethylamino-5-oxo-2-(2-oxo-2H-benzopyran-3-carboxamido)pentanoate] | 240 | 54.7 | 62.9 | 220 | 56 ± 10 | < 65 | < 85 | < 125
CCNC(=O)CC[C@@H](NC(=O)c1cc2cc(Cl)ccc2oc1=O)C(=O)OCC [Compound Ic, (R)-2-(6-CI-2-oxo-2H-benzopyran-3-carboxamido)-5-ethylamino-5-oxo-pentanoic acid ethyl ester] | 97 | 53.7 | 65.8 | 95 | 52 | < 50 | < 65 | < 100
CCNC(=O)CC[C@H](N)C(=O)OC [Compound IIa, theanine methyl ester] | 380 | 38.7 | 38.7 | 450 | 350 | – | – | –
CCNC(=O)CCC(NC(=O)c1cc2cc([N+](=O)[O-])ccc2oc1=O)C(=O)OCC (stereo in doubt) [Compound If, (R)-2-(6-nitro-2-oxo-2H-benzopyran-3-carboxamido)-5-ethylamino-5-oxo-pentanoic acid ethyl ester] | 102 | 50.9 | 66.8 | 112 | 121 | < 45 | < 55 | < 65
CCNC(=O)CCC(NC(=O)c1cc2cc(F)ccc2oc1=O)C(=O)OCC (stereo in doubt) [Compound Ie, (R)-2-(6-F-2-oxo-2H-benzopyran-3-carboxamido)-5-ethylamino-5-oxo-pentanoic acid ethyl ester] | 210 | 60.7 | 70.5 | 115 | 126 | < 50 | < 60 | < 100
